This is an account of results in PMC12203428, “Discovery of Clonixeril as a Sub-Femtomolar Modulator of the Human STING Receptor” (ACS Central Science, 2025).

In assay [1] the test system is hSTING WT pathway (THP1 Dual KI-hSTING-R232 cells, IRF3 luciferase reporter). In words: THP-1 IRF3 luciferase reporter assay, clonixeril as agonist. In general terms: A reporter such as luciferase makes a cellular process visible.
Procedure: 2 Luciferase assay utilizing monocytic leukemia (THP-1) cells. Cells (Invivogen THP1 Dual KI-hSTING-R232; wild type) were analyzed for activation of the hSTING WT pathway via an IRF3 luciferase reporter. Luminescence is reported in relative luminescence units (RLU). Error bars are SEM A. Dose–response of THP-1 cells treated with various concentrations of clonixeril (CXL); N = 6.
A 10 mM stock solution of CXL in 100% DMSO was diluted with ultrapure Milli Q water to make 3, 5, 10, 15, 20, 30, 40, 50 μM samples. The vehicle control contained blank cell medium treated with 0.1% DMSO. 20 μL sample/well of CXL or dilute DMSO (vehicle control) was added to a white, 300 μL, sterile 96 well plate. […] All samples contained a final DMSO concentration of 0.1%. […] The expression of Lucia luciferase was quantified by measuring the luminescence and evaluated in triplicate. Data are average luminescence changes shown as relative luminescence after subtraction of the background luminescence of vehicle-treated cells. A Glowmax luminometer with an injector was used for the measurement of luminescence in the luciferase assay. After the 10h incubation period, 20 μL/well of cell culture supernatant was transferred to a fresh well plate. A single injector added 50 μL of detection reagent per well, and immediately measured luminescence using a 4s incubation time integrated over 1 s.
In assay [2] the test system is p-hSTING puncta in HEK293 cells. As to the kind of experiment: HEK293 immunofluorescence of p-hSTING. It counts as cell-based, human. The method, then:
STING undergoes condensed cis-oligomerization as part of its signal transduction pathway and punctate structure formation of p-hSTING in the perinuclear region is indicative of hSTING oligomerization. We had speculated that CXL might affect hSTING oligomerization. […] HEK293 cells were treated with either 10 aM or 1 pM CXL for 1 h followed by 2 μM 2′,3′-cGAMP for 90 min. Cells treated with vehicle control for 1 h and then 2 μM of 2′,3′-cGAMP for 90 min were used as a positive control. At a 1 pM concentration of CXL, both p-hSTING and punctate structure formation were diminished.
HEK293 cells were seeded into four-chambered slides (5,000 cells/well.) 36 h later, sample 1 was first treated with vehicle control for 1 h and then transfected with 2 μM 2′,3′-cGAMP (InvivoGen) using Escort IV transfection reagent (Sigma Aldrich) for 1 h and 30 min. Samples 2 and 3 were first transfected with 10 aM and 1 pM CXL, respectively, for 1 h, followed by 2 μM 2′,3′-cGAMP for 1 h and 30 min. […] DMSO concentration was kept constant across all treatment groups. Cells were fixed with 4% paraformaldehyde for 15 min and immunostained with p-STING antibody at 4 °C overnight with light agitation. The slides were incubated with Alexa 594 rabbit secondary antibody for 1 h at RT. Subsequently, the slides were stained with Phalloidin conjugated to FITC (488) for 30 min at RT, mounted with solution containing 4′,6′-diamidino-2-phenylindole (DAPI) and imaged on a Fluorescent Microscope.

In assay [3] the target is hSTING (Homo sapiens, UniProt Q86WV6, H232R). As to the kind of experiment: Summary of interaction of CXL with hSTING in vitro and in cellulo. The conditions noted are these: read-out: EC50, first mode of interaction with hSTING.
In assay [4] the target is SUMO-hSTING CTD (Homo sapiens, UniProt Q86WV6, H232R). In words: Isothermal titration calorimetry. Type of assay: binding. Also on record: human STING (amino acid 155–343) was synthesized and subcloned into pET28a vector; made in house; host or cells: E. coli BL21(DE3). The source says:
In order to further explore the interaction between CXL and hSTING CTD, we employed Isothermal calorimetry (ITC) to measure the heat evolved accompanying CXL’s effect on SUMO-hSTING^WT CTD. […] In Figure A, we show the ITC data we obtained. […]. […] In Figure B, we also find that the binding isotherm is far from steady state or equilibrium, and thus, we could not obtain reliable thermodynamic parameters. Nonetheless, a significant amount of heat was released in the process of CXL interacting with the hSTING CTD. On the other hand, we were most interested in ITC measurements taken at femtomolar concentrations, given the biophysical experiments and in cellulo studies already described. Initial experiments treating the hSTING CTD with femtomolar concentrations of CXL were unsuccessful, likely due to the insensitivity of the instrument. […]. MicroCal ITC200 instrument (Malvern Pananalytical) was used to assess STING and CXL interactions. Both recombinantly purified STING domains (residues 155–343) containing a SUMO tag and CXL were buffer-exchanged and made in the same buffer composition, respectively, to avoid buffer mismatch. The same buffer cocktail was used in all ITC experiments, containing 25 mM HEPES (pH, 7.4), 150 mM NaCl, 5% glycerol, 0.5 mM TCEP, and 5% DMSO. STING protein from −80 °C aliquots was spun down at 12,000 RPM for 5–10 min before each run to remove any aggregates, diluted into the ITC buffer above (either as 40 μM STING alone or as 40 μM STING plus 20 μM 2,3-cGAMP), and loaded into the cell. CXL at various concentrations for different experiments was loaded into the syringe (Hamilton). For the control and reference, an ITC buffer devoid of CXL was used. ITC experiments were conducted at 25 °C using an initial 0.4 μL injection and 19 subsequent injections of 2 μL each at 150 s intervals. Heat of dilution (differential power) of the 19 injections resulting from the binding event was fitted into the nonlinear least-squares equation incorporated in the MicroCal ITC200 analysis software. The K D and other thermodynamic parameters were derived from curve fitting using MicroCal software.

Like-named read-outs stand apart in the source and are kept apart here.

SUMO-hSTING CTD, sequence (Q86WV6 155-343 H232R): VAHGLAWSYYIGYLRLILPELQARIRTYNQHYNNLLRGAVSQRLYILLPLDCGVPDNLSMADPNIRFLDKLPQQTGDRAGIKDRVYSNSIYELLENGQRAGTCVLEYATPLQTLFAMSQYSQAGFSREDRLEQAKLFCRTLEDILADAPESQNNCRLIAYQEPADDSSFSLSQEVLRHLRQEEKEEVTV

With `Cc1c(Cl)cccc1Nc1ncccc1C(=O)OCC(O)CO` (centres unmarked) [CXL, clonixeril], the concentration giving a half-maximal response (EC50) in assay [1] (Homo sapiens, THP1-Dual KI-hSTING-R232, read-out: EC50 (agonist activity), CXL alone, THP-1 cells, Figure 2A) is roughly 19 µM; in assay [1] (read-out: EC50 (agonist activity), CXL alone, THP-1 cells, Figure 2A), 20 µM; in assay [3] it was greater than 0.001 µM. Besides, the “Agonist activity in luciferase reporter assay” value in assay [1] (compound alone) is recorded as “weak agonist activity”. Also, the “p-hSTING and punctate structure formation” value in assay [2] (1 pM CXL 1 h, then 2 μM 2′,3′-cGAMP 90 min) is “diminished”. The “2′,3′-cGAMP induced p-hSTING puncta formation in the perinuclear region” value in assay [2] (10 aM CXL) was “may affect”. The “Levels of hSTING phosphorylation” value in assay [2] (10 aM CXL) is reported as “qualitatively unaffected”. In assay [4] (400 μM CXL into 40 μM hSTING CTD), the Heat produced entry is given as “essentially the same amount of heat as c-diGMP”. Moreover, the “Heat released per injection” value in assay [4] (400 μM clonixeril + 20 μM 2′,3′-cGAMP, reviewer's reading of Fig 6C) is 13 kcal/mol; in assay [4] (1.5 fM clonixeril into 40 μM hSTING CTD + 20 μM 2′,3′-cGAMP, first 15 injections), -7 to -2 kcal/mol. Moreover, in assay [4] (1.5 fM CXL into 40 μM SUMO-hSTING CTD + 20 μM 2′,3′-cGAMP), the Heat evolution result is given as “significant evolution of heat”.

As usually defined, the EC50 is the concentration that produces a half-maximal response.
